According to US9283222B2 (priority 2006, dated 2016):

Biological target: Recombinant Human Poly(ADP-Ribose) Polymerase (PARP), PARP-1 (Homo sapiens (Human), UniProt P09874)
Conditions: read-out: PARP-1 (Ki); Table 1; text calls the values EC50s

Chain of Recombinant Human Poly(ADP-Ribose) Polymerase (PARP), PARP-1 (P09874 whole entry): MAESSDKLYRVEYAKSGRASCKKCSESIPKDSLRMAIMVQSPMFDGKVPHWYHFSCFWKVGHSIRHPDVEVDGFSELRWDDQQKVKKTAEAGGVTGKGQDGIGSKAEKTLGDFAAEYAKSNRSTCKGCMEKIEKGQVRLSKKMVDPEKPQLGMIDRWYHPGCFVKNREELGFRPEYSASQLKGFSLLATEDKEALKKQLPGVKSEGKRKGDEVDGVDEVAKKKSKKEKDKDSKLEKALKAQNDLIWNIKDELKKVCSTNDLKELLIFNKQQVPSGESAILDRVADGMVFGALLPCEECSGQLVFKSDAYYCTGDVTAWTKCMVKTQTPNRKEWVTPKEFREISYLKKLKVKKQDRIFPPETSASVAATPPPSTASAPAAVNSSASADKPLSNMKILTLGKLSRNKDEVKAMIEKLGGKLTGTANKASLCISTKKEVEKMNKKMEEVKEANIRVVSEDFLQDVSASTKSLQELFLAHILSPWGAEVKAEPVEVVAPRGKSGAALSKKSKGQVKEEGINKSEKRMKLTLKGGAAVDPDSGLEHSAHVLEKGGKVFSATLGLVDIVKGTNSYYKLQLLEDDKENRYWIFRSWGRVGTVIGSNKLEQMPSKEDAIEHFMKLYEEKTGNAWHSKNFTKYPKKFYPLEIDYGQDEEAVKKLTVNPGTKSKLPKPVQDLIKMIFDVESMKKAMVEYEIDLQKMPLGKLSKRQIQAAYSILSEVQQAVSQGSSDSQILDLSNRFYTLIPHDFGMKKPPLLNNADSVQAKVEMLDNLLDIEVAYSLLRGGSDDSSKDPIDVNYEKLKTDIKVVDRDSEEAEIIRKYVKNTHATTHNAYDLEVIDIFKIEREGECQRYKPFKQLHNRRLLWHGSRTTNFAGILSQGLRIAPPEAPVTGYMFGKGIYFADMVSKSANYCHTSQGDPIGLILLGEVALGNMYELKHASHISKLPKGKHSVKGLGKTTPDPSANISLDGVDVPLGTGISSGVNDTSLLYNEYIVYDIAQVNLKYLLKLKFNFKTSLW

Structure (SMILES) | Ki [nM]
O=C(Nc1cccc(Cc2n[nH]c(=O)c3c2CCCC3)c1)c1cccc(I)c1 [Example 246, 3-iodo-N-(3-((4-oxo-3,4,5,6,7,8-hexahydrophthalazin-1-yl)methyl)phenyl)benzamide] | 52
CC(=O)Nc1cccc(-c2cccc(C(C)c3n[nH]c(=O)c4c3CCCC4)c2)c1 (centres unmarked) [Example 286, N-(3′-(1-(4-oxo-3,4,5,6,7,8-hexahydrophthalazin-1-yl)ethyl)-1,1′-biphenyl-3-yl)acetamide] | 58
CN1CCN(CCNC(=O)c2cc(Cc3n[nH]c(=O)c4c3CCCC4)ccc2F)CC1 [Example 578, 2-fluoro-N-[2-(4-methylpiperazin-1-yl)ethyl]-5-[(4-oxo-3,4,5,6,7,8-hexahydrophthalazin-1-yl)methyl]benzamide] | 1.1
CCOc1cc(CCNC(=O)c2cccc(Cc3n[nH]c(=O)c4c3CCCC4)c2)ccc1OC [Example 400, N-(2-(3-ethoxy-4-methoxyphenyl)ethyl)-3-((4-oxo-3,4,5,6,7,8-hexahydrophthalazin-1-yl)methyl)benzamide] | 22
O=C(CCc1ccc(Cl)cc1)Nc1cccc(Cc2n[nH]c(=O)c3c2CCCC3)c1 [Example 169, 3-(4-chlorophenyl)-N-(3-((4-oxo-3,4,5,6,7,8-hexahydrophthalazin-1-yl)methyl)phenyl)propanamide] | 99
O=C(NCC1CCNCC1)c1cccc(Cc2n[nH]c(=O)c3c2CCCC3)c1 [Example 63, 3-((4-oxo-3,4,5,6,7,8-hexahydrophthalazin-1-yl)methyl)-N-(piperidin-4-ylmethyl)benzamide] | 23
CNC(=O)c1cccc(Cc2n[nH]c(=O)c3c2CCCC3)n1 [Example 80, N-methyl-6-((4-oxo-3,4,5,6,7,8-hexahydrophthalazin-1-yl)methyl)pyridine-2-carboxamide] | 47
CC(C)S(=O)(=O)Nc1cccc(Cc2n[nH]c(=O)c3c2CCCC3)c1 [Example 115, N-(3-((4-oxo-3,4,5,6,7,8-hexahydrophthalazin-1-yl)methyl)phenyl)propane-2-sulfonamide] | 157
COC(=O)c1ccc(Cc2n[nH]c(=O)c3c2CCCC3)cn1 [Example 86, methyl 5-((4-oxo-3,4,5,6,7,8-hexahydrophthalazin-1-yl)methyl)pyridine-2-carboxylate] | 390
CC1=C(C)C(=O)N(c2cc(Cc3n[nH]c(=O)c4c3CCCC4)ccc2F)C1=O [Example 290, 1-(2-fluoro-5-((4-oxo-3,4,5,6,7,8-hexahydrophthalazin-1-yl)methyl)phenyl)-3,4-dimethyl-1H-pyrrole-2,5-dione] | 1
O=C(Nc1cccc(Cc2n[nH]c(=O)c3c2CCCC3)c1)c1c[nH]c2ccccc12 [Example 218, N-(3-((4-oxo-3,4,5,6,7,8-hexahydrophthalazin-1-yl)methyl)phenyl)-1H-indole-3-carboxamide] | 86
O=C(NCCc1ccccc1)c1cccc(Cc2n[nH]c(=O)c3c2CCCC3)c1 [Example 375, 3-((4-oxo-3,4,5,6,7,8-hexahydrophthalazin-1-yl)methyl)-N-(2-phenylethyl)benzamide] | 51
O=C(CCC(=O)c1cccs1)Nc1cccc(Cc2n[nH]c(=O)c3c2CCCC3)c1 [Example 166, 4-oxo-N-(3-((4-oxo-3,4,5,6,7,8-hexahydrophthalazin-1-yl)methyl)phenyl)-4-thien-2-ylbutanamide] | 5
CC(Cc1n[nH]c(=O)c2c1CCCC2)c1ccc(F)c(-c2cccc(CNS(C)(=O)=O)c2)c1 (centres unmarked) [Example 297] | 1440
O=C(COc1ccccc1)Nc1cccc(CCc2n[nH]c(=O)c3c2CCCC3)c1 [Example 263, N-(3-(2-(4-oxo-3,4,5,6,7,8-hexahydrophthalazin-1-yl)ethyl)phenyl)-2-phenoxyacetamide] | 144
Cc1ccc(OCC(=O)Nc2cccc(Cc3n[nH]c(=O)c4c3CCCC4)c2)cc1 [Example 150, 2-(4-methylphenoxy)-N-(3-((4-oxo-3,4,5,6,7,8-hexahydrophthalazin-1-yl)methyl)phenyl)acetamide] | 16
Cc1cc(Cl)ccc1OCC(=O)Nc1cccc(Cc2n[nH]c(=O)c3c2CCCC3)c1 [Example 171, 2-(4-chloro-2-methylphenoxy)-N-(3-((4-oxo-3,4,5,6,7,8-hexahydrophthalazin-1-yl)methyl)phenyl)acetamide] | 56
Nc1cccc(CCc2n[nH]c(=O)c3c2CCCC3)c1 [Example 260, 4-(2-(3-aminophenyl)ethyl)-5,6,7,8-tetrahydrophthalazin-1(2H)-one] | 243
COc1ccc(C)cc1NC(=O)c1cccc(Cc2n[nH]c(=O)c3c2CCCC3)c1 [Example 351, N-(2-methoxy-5-methylphenyl)-3-((4-oxo-3,4,5,6,7,8-hexahydrophthalazin-1-yl)methyl)benzamide] | 277
CC(C)c1ccccc1NC(=O)c1cccc(Cc2n[nH]c(=O)c3c2CCCC3)c1 [Example 333, N-(2-isopropylphenyl)-3-((4-oxo-3,4,5,6,7,8-hexahydrophthalazin-1-yl)methyl)benzamide] | 892

Other lines, results leading:

Ki [nM] | Structure (SMILES)
1.3 | CC(=O)CCCC(=O)Nc1cc(Cc2n[nH]c(=O)c3c2CCCC3)ccc1F [Example 455, N-(2-fluoro-5-((4-oxo-3,4,5,6,7,8-hexahydrophthalazin-1-yl)methyl)phenyl)-5-oxohexanamide]
3 | O=C(c1cc(Cc2n[nH]c(=O)c3c2NCCC3)ccc1F)N1CCN(CCOc2ccccc2)CC1 [Example 561, 8-(4-fluoro-3-{[4-(2-phenoxyethyl)piperazin-1-yl]carbonyl}benzyl)-2,3,4,6-tetrahydropyrido[2,3-d]pyridazin-5(1H)-one]
4 | CN(C(=O)c1cc(Cc2n[nH]c(=O)c3c2NCCC3)ccc1F)C1CCN(C(=O)c2cscn2)CC1 [Example 717, 2-fluoro-N-methyl-5-[(5-oxo-1,2,3,4,5,6-hexahydropyrido[2,3-d]pyridazin-8-yl)methyl]-N-[1-(1,3-thiazol-4-ylcarbonyl)piperidin-4-yl]benzamide]
56 | COc1ccc(CCNC(=O)c2cccc(Cc3n[nH]c(=O)c4c3CCCC4)c2)c(OC)c1 [Example 403, N-(2-(2,4-dimethoxyphenyl)ethyl)-3-((4-oxo-3,4,5,6,7,8-hexahydrophthalazin-1-yl)methyl)benzamide]
74 | CC(C)(C)OC(=O)N1CCC(NC(=O)c2cc(Cc3n[nH]c(=O)c4c3NCCC4)ccc2F)CC1 [Example 699, tert-butyl 4-({2-fluoro-5-[(5-oxo-1,2,3,4,5,6-hexahydropyrido[2,3-d]pyridazin-8-yl)methyl]benzoyl}amino)piperidine-1-carboxylate]
54 | O=C(Nc1cc(Cc2n[nH]c(=O)c3c2CCCC3)ccc1F)N[C@@H](Cc1ccccc1)C(=O)O [Example 628, N-[({2-fluoro-5-[(4-oxo-3,4,5,6,7,8-hexahydrophthalazin-1-yl)methyl]phenyl}amino)carbonyl]phenylalanine]
1.1 | O=C(NC1CCN(C(=O)c2cc(Cc3n[nH]c(=O)c4c3NCCC4)ccc2F)CC1)c1ccco1 [Example 750, N-(1-{2-fluoro-5-[(5-oxo-1,2,3,4,5,6-hexahydropyrido[2,3-d]pyridazin-8-yl)methyl]benzoyl}piperidin-4-yl)-2-furamide]
14 | CCOCCN1CCN(C(=O)c2cc(Cc3n[nH]c(=O)c4c3NCCC4)ccc2F)CC1 [Example 485, 8-(3-((4-(2-ethoxyethyl)piperazin-1-yl)carbonyl)-4-fluorobenzyl)-2,3,4,6-tetrahydropyrido(2,3-d)pyridazin-5(1H)-one]
1.1 | O=C(c1ccc2[nH]cnc2c1)N1CCN(C(=O)c2cc(Cc3n[nH]c(=O)c4c3CCCC4)ccc2F)CC1 [Example 680, 4-(3-{[4-(1H-benzimidazol-5-ylcarbonyl)piperazin-1-yl]carbonyl}-4-fluorobenzyl)-5,6,7,8-tetrahydrophthalazin-1(2H)-one]
4 | O=C(c1cc(Cc2n[nH]c(=O)c3c2CCCC3)ccc1F)N1CCN(CCN2CCOCC2)CC1 [Example 571, 4-(4-fluoro-3-{[4-(2-morpholin-4-ylethyl)piperazin-1-yl]carbonyl}benzyl)-5,6,7,8-tetrahydrophthalazin-1(2H)-one]
16 | O=C(c1cccc(Cc2n[nH]c(=O)c3c2CCCC3)c1)N1CCN(CCOCCO)CC1 [Example 443, 4-(3-((4-(2-(2-hydroxyethoxy)ethyl)piperazin-1-yl)carbonyl)benzyl)-5,6,7,8-tetrahydrophthalazin-1(2H)-one]
2.3 | O=C(c1cc(Cc2n[nH]c(=O)c3c2NCCC3)ccc1F)N1CCCN(C(=O)[C@@H]2CSCN2)CC1 [Example 701, 8-[4-fluoro-3-({4-[(4R)-1,3-thiazolidin-4-ylcarbonyl]-1,4-diazepan-1-yl}carbonyl)benzyl]-2,3,4,6-tetrahydropyrido[2,3-d]pyridazin-5(1H)-one]
1.2 | Cc1nc2cc(C(=O)N3CCN(C(=O)c4cc(Cc5n[nH]c(=O)c6c5NCCC6)ccc4F)CC3)ccc2[nH]1 [Example 654]
3.5 | COC(=O)c1cc(Cc2n[nH]c(=O)c3c2NCCC3)ccc1F [Example 465, methyl 2-fluoro-5-((5-oxo-1,2,3,4,5,6-hexahydropyrido(2,3-d)pyridazin-8-yl)methyl)benzoate]
1.3 | O=C(c1ccc(Cl)cn1)N1CCN(C(=O)c2cc(Cc3n[nH]c(=O)c4c3NCCC4)ccc2F)CC1 [Example 641]
2.5 | O=C(c1cc(Cc2n[nH]c(=O)c3c2CCCC3)ccc1F)N1CCN(C(=O)C2CCCCC2)CC1 [Example 624, 4-(3-{[4-(cyclohexylcarbonyl)piperazin-1-yl]carbonyl}-4-fluorobenzyl)-5,6,7,8-tetrahydrophthalazin-1(2H)-one]
6 | O=C(c1cccc(Cc2n[nH]c(=O)c3c2CCCC3)c1)N1CCC(n2c(=O)[nH]c3ccccc32)CC1 [Example 434, 4-(3-((4-(2-oxo-2,3-dihydro-1H-benzimidazol-1-yl)piperidin-1-yl)carbonyl)benzyl)-5,6,7,8-tetrahydrophthalazin-1(2H)-one]
32 | O=C1NC(Cc2ccccc2)C(=O)N1c1cc(Cc2n[nH]c(=O)c3c2NCCC3)ccc1F (centres unmarked) [Example 605, 5-benzyl-3-{2-fluoro-5-[(5-oxo-1,2,3,4,5,6-hexahydropyrido[2,3-d]pyridazin-8-yl)methyl]phenyl}imidazolidine-2,4-dione]
